Numbers after ± are expanded uncertainties.
Tests used:
[1] = Crystal; DTA
[2] = Molar enthalpy of transition or fusion; settings: Crystal; DSC

**Q.** Which Normal melting temperature [1] does the source give for `COc1cnc(Cl)nc1Cl` [2,4-dichloro-5-methoxypyrimidine] here?
**A.** Its Normal melting temperature is 69.00 ± 0.5 °C.

**Q.** And the “Molar enthalpy of transition or fusion” value [2]?
**A.** The value was 4.22 ± 0.1 kcal/mol.

Reference: the NIST ThermoML archive (doi:10.1021/je9005689)
